Test results from patent publication US5840728A, “Conformationally locked nucleoside analogs as antiherpetic agents” (priority 1997, dated 1998).
Converted amounts (≈) assume the structure as drawn. Like-named read-outs stand apart in the source and are kept apart here.

Experiments:
[1] = system: HSV-1 (herpes simplex type 1); assay: microbe, parasite or virus in culture; conditions: for EC50: HSV-1; for activity against HSV-1: in words
From the text: (§1) Compounds 25 and 26 are (S)-methanocarba-T and (±)-(carba-T), respectively. (±)-carba-T was kindly provided by Dr. Y. Fulmer Shealy, Southern Research Institute, Birmingham, Ala. [drawing 5]

[2] = system: HSV-2 (herpes simplex type 2); assay: microbe, parasite or virus in culture; conditions: for EC50: HSV-2; for activity against HSV-2: in words
From the text: as §1

[3] = Adenosine deaminase studies (deamination by ADA); assay type: biochemical; conditions: adenosine deaminase; 50 μM compound; 1.0 unit ADA; 37° C., pH 7.1; read-out: t1/2 of deamination
Method: (§2) At timed intervals, 50 µl aliquots were quenched with 450 μl water containing the ADA inhibitor deoxycoformycin (4 μM). Hydrolysis kinetics of 4 were followed by high performance liquid chromatography (HPLC) with on-the-fly UV spectral characterization of all chromatographic components. […] The hydrolysis rate constant (k/ADA) and t^1/2 of decay or formation were obtained using GraphPAD Inpiot curve fitting program.

[4] = system: adenosine deaminase (ADA); assay: Adenosine deaminase studies (deamination by ADA); assay type: biochemical
Method: as §2

[5] = Cytotoxicity in EBV host cells (Daudi); assay type: cell-based; conditions: human
[6] = Cytotoxicity in growing (rapidly dividing) HFF; assay type: cell-based, human; conditions: human, growing hff cells, read-out: CC50
Growing HFF = assay: Cytotoxicity in growing (rapidly dividing) HFF; assay type: cell-based, human; conditions: in words; rapidly proliferating vs stationary cells
[7] = system: HCMV (human cytomegalovirus); assay: microbe, parasite or virus in culture; assay type: cell-based; conditions: for EC50: Human betaherpesvirus 5, Table 5, HCMV, plaque reduction assay
From the text: | ^f plaque reduction assay.

EBV (Epstein-Barr virus) = assay: microbe, parasite or virus in culture; assay type: cell-based; conditions: for EC50: human gammaherpesvirus 4, read-out: EC50; for anti-EBV activity relative to acyclovir / EC50: EBV; for activity against EBV: in words
From the text: as §1

[8] = system: HCMV (human cytomegalovirus); assay: microbe, parasite or virus in culture; assay type: cell-based
[9] = Cytotoxicity in host cells / stationary cells (HFF); assay type: cell-based, human; conditions: human, hff cells
From the text: (§3) ^d CC50 = cytotoxic concentration in μg/mL that produces 50%

[10] = system: S-adenosylhomocysteine hydrolase (AdoHcy-ase); assay: Inhibition of S-adenosylhomocysteine hydrolase; assay type: biochemical
herpes viruses = assay: Antiherpetic activity, overall; assay type: cell-based; conditions: in words
[11] = system: HFF (human foreskin fibroblasts); assay: Cytotoxicity in host cells / stationary cells (HFF); assay type: cell-based; conditions: Table 5; host cell not given; listed as (N)-DMC-G
From the text: as §3

[12] = Human alphaherpesvirus 1, Table 5
[13] = Human alphaherpesvirus 2, Table 5
[14] = Human betaherpesvirus 5, Table 5, HCMV, read-out: EC50

Q: For `Nc1ncnc2c1ncn2[C@H]1C[C@H](O)[C@]2(CO)C[C@H]12` [Compound 4, (1 R,2S,4S,5S)-1-Hydroxymethyl-2-hydroxM-4-(6-amino-9-purinyl)bicyclo[3.1.0]hexane], which “SI (CC50/EC50)” value [1] is on record?
A: > 1.4

Q: What about the EC50 ([1]; Human alphaherpesvirus 1, Table 3, HFF) of the same molecule?
A: 72 µg/mL (≈ 276 µM)

Q: What about the EC50 [1, 12] of the same molecule?
A: 72 µg/mL (≈ 276 µM)

Q: And the “activity against HSV-1” value [1]?
A: weak level of activity

Q: And the “SI (CC50/EC50)” value [2]?
A: > 7.2

Q: And the EC50 ([2]; Human alphaherpesvirus 2, Table 3, HFF)?
A: 13.9 µg/mL (≈ 53.2 µM)

Q: What about the EC50 [2, 13] of the same molecule?
A: 13.9 µg/mL (≈ 53.2 µM)

Q: And the “activity against HSV-2” value ([2]; listed as (N)-methanocarba-A)?
A: exhibited antiviral effects against Human CMV, EBV and HSV-2

Q: And the half-life at 50 µM [3]?
A: 3.2 min

Q: What about the “time to complete deamination” value ([4]; 50 μM compound, 1.0 unit ADA, 37° C., pH 7.1) of the same molecule?
A: 30 min

Q: What about the “deamination by ADA” value ([4]; in words) of the same molecule?
A: complete deamination

Q: And the CC50 ([5]; Table 3, Daudi)?
A: > 100 µg/mL

Q: What about the CC50 ([6]; Table 3, Growing HFF) of the same molecule?
A: > 100 µg/mL

Q: What about the “cytotoxicity to rapidly dividing cells” value (Growing HFF) of the same molecule?
A: equally non-toxic to rapidly proliferating cells and stationary cells

Q: And the EC50 ([7]; read-out: EC50)?
A: 5.6 µg/mL (≈ 21.4 µM)

Q: And the “SI (CC50/EC50)” value ([7]; human foreskin fibroblasts)?
A: > 17.9

Q: And the “SI (CC50/EC50)” value (EBV (Epstein-Barr virus))?
A: > 66.7

Q: What about the “anti-EBV activity relative to acyclovir” value (EBV (Epstein-Barr virus)) of the same molecule?
A: only fifteen fold weaker than acyclovir

Q: And the EC50 (EBV (Epstein-Barr virus))?
A: 1.5 µg/mL (≈ 5.74 µM)

Q: And the EC50 (EBV (Epstein-Barr virus); Table 3, Daudi, viral capsid antigen)?
A: 1.5 µg/mL (≈ 5.74 µM)

Q: What about the “activity against EBV” value (EBV (Epstein-Barr virus); listed as (N)-methanocarba-A) of the same molecule?
A: exhibited antiviral effects against Human CMV, EBV and HSV-2

Q: And the “SI (CC50/EC50)” value [8]?
A: > 32.2

Q: And the “potency against HCMV relative to gancyclovir” value ([8]; HCMV)?
A: only ten fold less potent than gancyclovir

Q: And the antiviral selectivity ([8]; HCMV, compared with gancyclovir, in words)?
A: superibor to that of gancyclovir

Q: What about the EC50 ([8]; Human betaherpesvirus 5, Table 3, HCMV, HFF, read-out: EC50) of the same molecule?
A: 3.1 µg/mL (≈ 11.9 µM)

Q: What about the EC50 [8, 14] of the same molecule?
A: 3.1 µg/mL (≈ 11.9 µM)

Q: And the EC50 ([8]; Human betaherpesvirus 5, text, HCMV, read-out: EC50)?
A: 3.1 µg/mL (≈ 11.9 µM)

Q: And the “activity against HCMV” value ([8]; in words, listed as (N)-methanocarba-A)?
A: exhibited antiviral effects against Human CMV, EBV and HSV-2

Q: What about the CC50 ([9]; Table 3, HFF) of the same molecule?
A: > 100 µg/mL

Q: What about the CC50 ([9]; Table 5, host cell not given) of the same molecule?
A: > 100 µg/mL

Q: What about the inhibition ([10]; at 100 μM) of the same molecule?
A: 20%

Q: What about the inhibition ([10]; at 100 FM concentration (so in the source)) of the same molecule?
A: 20%

Q: And the “activity against AdoHcy-ase” value ([10]; in words)?
A: very low

Q: What does the source list for `Cc1cn([C@H]2C[C@H](O)[C@]3(CO)C[C@H]23)c(=O)[nH]c1=O` [Compound 20]?
A: SI (CC50/EC50) [1]: > 2000; EC50 ([1]; Human alphaherpesvirus 1, Table 4, plaques reduced by 50%): 0.01 µg/mL (≈ 0.0396 µM); activity against HSV-1 [1]: strong activity; activity against HSV-1 ([1]; listed as N-methanocarba-T): effective against HSV-1, HSV-2 and EBV; SI (CC50/EC50) [2]: > 167; EC50 ([2]; Human alphaherpesvirus 2, Table 4, plaques reduced by 50%): 0.12 µg/mL (≈ 0.476 µM); activity against HSV-2 [2]: strong activity; activity against HSV-2 ([2]; listed as N-methanocarba-T): effective against HSV-1, HSV-2 and EBV; CC50 ([5]; Table 4, EBV line, host cell not given): > 100 µg/mL; CC50 ([6]; rapidly dividing cells): 32.9 µg/mL (≈ 130 µM); SI (CC50/EC50) (EBV (Epstein-Barr virus)): > 222; anti-EBV activity relative to acyclovir (EBV (Epstein-Barr virus)): not as strong as ACV; EC50 (EBV (Epstein-Barr virus); Table 4): 0.45 µg/mL (≈ 1.78 µM); activity against EBV (EBV (Epstein-Barr virus)): significant anti-EBV activity; activity against EBV (EBV (Epstein-Barr virus); listed as N-methanocarba-T): effective against HSV-1, HSV-2 and EBV; CC50 ([9]; Table 4, HSV-1 and HSV-2 lines, host cell not given): > 20 µg/mL; CC50 ([9]; stationary cells): > 100 µg/mL; activity relative to acyclovir (herpes viruses; HSV-1 and HSV-2): stronger than observed with acyclovir

Q: What does the source list for `O=c1ccn([C@H]2C[C@H](O)[C@]3(CO)C[C@H]23)c(=O)[nH]1` [Compound 21, (1R,2S,4S,5S)-1-(Hydroxymethyl)-2-hydroxy-4-(2,4-(1H,3H)-dioxopvrimidin-1-yl)bicyclor3.1.Olhexane]?
A: SI (CC50/EC50) [1]: 1; EC50 [1, 12]: > 100 µg/mL; activity against HSV-1 [1]: inactive against all three viruses; SI (CC50/EC50) [2]: 1; EC50 [2, 13]: > 100 µg/mL; activity against HSV-2 [2]: inactive against all three viruses; SI (CC50/EC50) [8]: 1; EC50 [8, 14]: > 100 µg/mL; activity against HCMV ([8]; in words): inactive against all three viruses; CC50 ([9]; Table 5, host cell not given): > 100 µg/mL

Q: Which results are given for `Nc1ccn([C@H]2C[C@H](O)[C@]3(CO)C[C@H]23)c(=O)n1` [Compound 22]?
A: SI (CC50/EC50) [1]: 486; EC50 [1, 12]: 0.14 µg/mL (≈ 0.59 µM); activity against HSV-1 [1]: very active against HSV-1; SI (CC50/EC50) [2]: < 4.8; EC50 [2, 13]: > 20 µg/mL; activity against HSV-2 [2]: Little activity; SI (CC50/EC50) [8]: < 2.2; EC50 [8, 14]: > 4 µg/mL; activity against HCMV ([8]; in words): active against HCMV

Q: Which results are given for `Nc1nc2c(ncn2[C@H]2C[C@H](O)[C@]3(CO)C[C@H]23)c(=O)[nH]1` [Compound 24]?
A: SI (CC50/EC50) [1]: > 25; EC50 [1, 12]: 4 µg/mL (≈ 14.4 µM); activity against HSV-1 [1]: active against HSV-1 and HSV-2; SI (CC50/EC50) [2]: > 10.1; EC50 [2, 13]: 9.9 µg/mL (≈ 35.7 µM); activity against HSV-2 [2]: active against HSV-1 and HSV-2; SI (CC50/EC50) [8]: < 3.2; EC50 [8, 14]: > 20 µg/mL; activity against HCMV ([8]; in words): little activity against HCMV; CC50 ([9]; Table 5, host cell not given): > 100 µg/mL; CC50 [11]: 64.3 µg/mL (≈ 232 µM)

Q: For `Cc1cn([C@@]23C[C@H](O)[C@@H](CO)[C@@H]2C3)c(=O)[nH]c1=O` [Compound 25, (S)-methanocarba-T, reference compound], which “SI (CC50/EC50)” value [1] is on record?
A: 1

Q: What about the “SI (CC50/EC50)” value [2] of the same molecule?
A: 1

Q: And the CC50 ([6]; rapidly dividing cells)?
A: > 100 µg/mL

Q: What about the CC50 ([9]; stationary cells) of the same molecule?
A: > 100 µg/mL

Q: And the antiherpetic activity (herpes viruses)?
A: did not exhibit antiherpetic activity

Q: With `Nc1nc(O)c2ncn(COC(CO)CO)c2n1` [GCV, gancyclovir] as the molecule, how does the CC50 ([6]; rapidly dividing cells) read?
A: 40 µg/mL (≈ 157 µM)

Q: And the “cytotoxicity to rapidly dividing cells” value (Growing HFF)?
A: increased cytotoxicity towards rapidly dividing cells

Q: And the EC50 ([7]; control, read-out: Control EC50)?
A: 0.2 µg/mL (≈ 0.784 µM)

Q: And the EC50 ([8]; Human betaherpesvirus 5, Table 3, HCMV, HFF, positive control, read-out: Positive Control EC50)?
A: 0.3 µg/mL (≈ 1.18 µM)
